Experimental data: patent US8003610B2, “Bradykinin B2 receptor antagonist peptide from amphibian skin” (priority 2003, dated 2011)
Square brackets hold non-standard residues; d marks the D form. Ends that are not written are not given here. pGlu = O=C1CC[C@@H](C(=O)O)N1

Legend:
[1] = test system: human microvascular endothelial cell line (HMEC-1); assay: proliferation of endothelial cell line; assay type: cell-based; conditions: FIG. 11
Excerpt: FIG. 11 is a graph comparing the effect of control (▪), kinestsin (Q-9-R-(-7) (▴) and fumagillin (▾) on the proliferation of the human microvascular endothelial cell line (HMEC-1).

[2] = test system: human microvascular endothelial cells (HMEC-1); assay: endothelial cell migration into 1 cm wound in cell monolayer; assay type: cell-based
Procedure: FIG. 9 is a graph comparing the ability of kinestatin (▪) and fumagillin (▾) to inhibit the migration of human microvascular endothelial cells (HMEC-1) into a wound in a dose- and time-dependent manner
FIG. 10 is a time response curve showing the delay in complete closure of endothelial cell 1 cm wounds in the presence of kinestatin (▪) and non-treated control cells (▴).
Expt. […] Kinestatin prolonged wound closure time by 100% from 7 h (control) to 14 h (treatment) (FIG. 10).

[3] = test system: endothelial tube structures on Matrigel matrix plates; assay: Matrigel tube formation assay; assay type: cell-based; conditions: FIG. 8
Excerpt: FIG. 8 is a graph comparing the ability of kinestatin (▪) and fumagillin (▴) to inhibit the formation of endothelial tube structures on Matrigel matrix plates.

[4] = test system: recombinantly-expressed receptor (of ornithokinin); conditions: cited from earlier work
B1-receptor = molecular target: T1, B1-receptor (Oryctolagus cuniculus, UniProt P48748); conditions: cited from earlier work
T1 construct: in B1-receptor-rich preparations, such as the rabbit aorta; host or cells: rabbit aorta tissue preparation
T1 sequence (P48748 1-352): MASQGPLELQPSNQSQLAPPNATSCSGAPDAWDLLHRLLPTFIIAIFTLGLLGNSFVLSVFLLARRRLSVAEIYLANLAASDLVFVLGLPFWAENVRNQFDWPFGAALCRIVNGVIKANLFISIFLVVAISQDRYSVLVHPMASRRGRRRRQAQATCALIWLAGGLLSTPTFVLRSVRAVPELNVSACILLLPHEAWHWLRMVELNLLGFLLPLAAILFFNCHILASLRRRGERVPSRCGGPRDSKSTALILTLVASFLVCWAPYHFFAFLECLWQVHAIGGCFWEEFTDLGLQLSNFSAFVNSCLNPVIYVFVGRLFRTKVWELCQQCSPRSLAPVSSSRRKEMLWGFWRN

[5] = molecular target: autologous receptor (of ornithokinin) cloned from chicken; conditions: (Tyr^0)-radioiodinated ornithokinin as competing ligand; read-out: affinity; cited from earlier work
bradykinin B2 receptors = molecular target: T2, bradykinin B2 receptors (Rattus norvegicus, UniProt P25023); assay: inhibition of bradykinin-induced relaxation in phenylephrine pre-constricted rat tail artery preparation
T2 construct: phenylephrine pre-constricted rat tail artery preparation; from tissue; host or cells: rat tail artery (arterial smooth muscle preparation)
T2 sequence (P25023 1-396): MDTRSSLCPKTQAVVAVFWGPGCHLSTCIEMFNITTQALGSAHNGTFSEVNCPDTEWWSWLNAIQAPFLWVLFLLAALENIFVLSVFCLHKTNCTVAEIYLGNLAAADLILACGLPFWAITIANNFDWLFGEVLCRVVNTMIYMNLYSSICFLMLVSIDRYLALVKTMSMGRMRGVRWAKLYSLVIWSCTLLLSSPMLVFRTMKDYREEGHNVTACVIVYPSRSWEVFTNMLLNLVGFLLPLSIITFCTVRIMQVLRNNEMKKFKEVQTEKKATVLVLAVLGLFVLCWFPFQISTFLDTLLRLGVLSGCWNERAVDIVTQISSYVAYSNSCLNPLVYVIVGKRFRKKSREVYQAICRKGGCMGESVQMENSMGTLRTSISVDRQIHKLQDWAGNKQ
Procedure: Male albino Wistar rats (200-250 g) were euthanised by asphyxiation followed by cervical dislocation. The tail artery was prepared as described previously (Chen T et al, Peptides. 2002; 23:1547-1555, Chen T et al, Eur. J. Biochem. 2002; 269:4693-4700, Hirst et al Br. J. Radiol. 1994; 67:795-799). After perfusion of arterial preparations with 1×10^−5M phenylephrine to obtain constriction plateaux, relative relaxation was recorded as described below following applications of reconstituted 100 μl aliquots of HPLC fraction samples (1-240) from B. maxima skin secretion. […] The preparations were perfused as before with phenylephrine (1×10^−5M) until constriction plateaux were obtained. Following this, combinations of phenylephrine (1×10^−5M) and reconstituted non-myoactive fractions were perfused through individual preparations for 20 min. Immediately after this, the perfusate was replaced by a combination of phenylephrine (1×10^−5M), bradykinin (1×10^−6M) and reconstituted individual fractions. Changes in arterial smooth muscle tone were measured by a pressure transducer system and the percentage relative relaxations induced by bradykinin in the presence of reconstituted fractions were calculated using the MacLab computer package.
Arterial smooth muscle preparations were prepared as described previously and treated with phenylephrine (1×10^−5M) until constriction plateaux were achieved. Following this a series of experiments were performed to address the pharmacological characterization of the novel peptide, kinestatin. 1) Separate dose response curves were constructed for bradykinin and kinestatin using concentrations of both peptides in the range of 10^−11 to 10^−5M. […] The preparations were prepared as described before. […] Following this, phenylephrine (1×10^−5M) was added to the antagonist solution and perfused for 10 min to develop contraction of the arterial smooth muscle. On obtaining stable plateaux of constriction, the perfusate was replaced by another containing phenylephrine, antagonist and bradykinin (1×10^−6M). During a 20 min perfusion period, changes in arterial pressure were recorded as described previously. In a second similar series of experiments, kinestatin (1×10^−8M) was added to each of the specific bradykinin receptor sub-type antagonist solutions prior to the procedure described above. Data were analysed by computer using Students t test available on the Graph Pad Prism™ programme.

[6] = test system: rat tail artery smooth muscle; assay: direct relaxation of phenylephrine pre-constricted rat tail artery preparation; conditions: synthetic replicate, in the effective molar concentration range of bradykinin, FIG. 4A
Procedure: Male albino Wistar rats (200-250 g) were euthanised by asphyxiation followed by cervical dislocation. The tail artery was prepared as described previously (Chen T et al, Peptides. 2002; 23:1547-1555, Chen T et al, Eur. J. Biochem. 2002; 269:4693-4700, Hirst et al Br. J. Radiol. 1994; 67:795-799). After perfusion of arterial preparations with 1×10^−5M phenylephrine to obtain constriction plateaux, relative relaxation was recorded as described below following applications of reconstituted 100 μl aliquots of HPLC fraction samples (1-240) from B. maxima skin secretion. This was carried out to exclude those fractions (25) containing direct arterial smooth muscle relaxant activity. […] Changes in arterial smooth muscle tone were measured by a pressure transducer system and the percentage relative relaxations induced by bradykinin in the presence of reconstituted fractions were calculated using the MacLab computer package.
Arterial smooth muscle preparations were prepared as described previously and treated with phenylephrine (1×10^−5M) until constriction plateaux were achieved. […] 2) The effect of prior addition of a range of concentrations of kinestatin on the observed activity of subsequently added bradykinin at its maximally effective concentration (10^−6M) was determined. […] During a 20 min perfusion period, changes in arterial pressure were recorded as described previously. […]

Molecule: CO[C@@H]1[C@H](OC(=O)/C=C/C=C/C=C/C=C/C(=O)O)CC[C@]2(CO2)[C@H]1[C@@]1(C)O[C@@H]1CC=C(C)C [fumagillin, reference compound]
- cell proliferation [1]: profound effects on inhibition of cell proliferation
- maximal inhibitory effect on migration ([2]; FIG. 9): same maximal inhibitory effect
- effect on tube formation [3]: inhibitory effect

Molecule: Arg-Arg-Pro-Hyp-Gly-Thi-Ser-Tic-Oic-Arg [HOE-140]
- function at receptor [4]: partial agonist

Molecule: RPPGFSPLR [Leu^8-bradykinin, bradykinin analogue, found in pickerel frog skin]
- antagonism of bradykinin and des-Arg^9 bradykinin (B1-receptor; B1-receptor-rich preparations, rabbit aorta): potent antagonist
- bradykinin agonist activity (B1-receptor; previous pharmacological studies): devoid of bradykinin agonist activity

Molecule: RPPGFTPLR [ornithokinin]
- Kd [5]: 4.7 nM

Molecule: pGlu-Ile-Pro-Gly-Leu-Gly-Pro-Leu-Arg.NH2 ([pGlu]IPGLGPLR-NH2; SMILES CC[C@H](C)[C@H](NC(=O)[C@@H]1CCC(=O)N1)C(=O)N1CCC[C@H]1C(=O)NCC(=O)N[C@@H](CC(C)C)C(=O)NCC(=O)N1CCC[C@H]1C(=O)N[C@@H](CC(C)C)C(=O)N[C@@H](CCCNC(=N)N)C(N)=O; listed as Bombina maxima) [kinestatin, bradykinin B2 receptor antagonist nonapeptide from skin secretion of Bombina maxima; synthetic replicate tested]
- cell proliferation [1]: profound effects on inhibition of cell proliferation
- maximal inhibitory effect on migration ([2]; FIG. 9): same maximal inhibitory effect
- potency relative to fumagillin ([2]; FIG. 9): more potent on a molar basis
- endothelial cell migration ([2]; time to half closure of 1 cm wide wound): inhibition in endothelial cell migration
- wound closure time ([2]; treatment, FIG. 10): 14 h
- prolongation of wound closure time ([2]; versus control, FIG. 10): 100%
- effect on tube formation [3]: inhibitory effect
- potency as bradykinin antagonist relative to Leu^8 bradykinin (bradykinin B2 receptors): ~10 ×
- inhibition of bradykinin-induced relaxation in HOE 140-treated preparations (bradykinin B2 receptors; kinestatin 1×10^−8M added, HOE 140 3×10^−7M, p=0.0015, n=6): significant inhibition
- inhibition of bradykinin-induced relaxation in des Arg HOE 140-treated preparations (bradykinin B2 receptors; kinestatin 1×10^−8M added, des Arg HOE 140 3×10^−7M, p=0.033, n=6): significant inhibition
- effect on bradykinin-induced relaxation dose response curve (bradykinin B2 receptors; kinestatin at 1×10^−8M, FIG. 4C): Virtual total abolition
- maximally inhibitory concentration (bradykinin B2 receptors; prior addition, bradykinin dose response): 10^−8 M
- receptor mediating the inhibition (bradykinin B2 receptors; rat tail arterial smooth muscle): antagonism at B2 receptors
- block of maximal bradykinin relaxing activity (bradykinin B2 receptors; ten nanomolar kinestatin, one micromolar bradykinin): almost totally blocked
- mechanism of inhibition (bradykinin B2 receptors; within this concentration range): non-competitive mechanism
- myorelaxant activity [6]: devoid of myorelaxant activity
